Assay results published in patent publication US20230146395A1, “Substituted Pyrimidines and Uses Thereof” (Verge Analytics, Inc., priority 2020, published 2023).
Structures can show the parent of a compound that is named as a salt.

Molecular target: T1, Full length human recombinant PIKFYVE (Homo sapiens, UniProt Q9Y2I7)
T1 construct: Full length human recombinant PIKFYVE; purchased Carna Biosciences (Kobe, Japan); host or cells: baculovirus expression system
Assay: Inhibition of PIKfyve (microfluidic electrophoresis kinase assay, PI3P/PS substrate)
Type: biochemical
Conditions: 12 concentrations
In short: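 Percent inhibition, from 12 concentrations, was derived from the product/(substrate+product) peak ratio separated by microfluidic electrophoresis, normalized to DMSO-only and enzyme-free controls. Reactions ran 3 h at room temperature: 2 nM N-terminal GST-PIKFYVE, 1 μM fluorescent PI3P in PS vesicles, […], HEPES pH 7.5, MgCl2/MnCl2.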

T1 sequence (Q9Y2I7 whole entry): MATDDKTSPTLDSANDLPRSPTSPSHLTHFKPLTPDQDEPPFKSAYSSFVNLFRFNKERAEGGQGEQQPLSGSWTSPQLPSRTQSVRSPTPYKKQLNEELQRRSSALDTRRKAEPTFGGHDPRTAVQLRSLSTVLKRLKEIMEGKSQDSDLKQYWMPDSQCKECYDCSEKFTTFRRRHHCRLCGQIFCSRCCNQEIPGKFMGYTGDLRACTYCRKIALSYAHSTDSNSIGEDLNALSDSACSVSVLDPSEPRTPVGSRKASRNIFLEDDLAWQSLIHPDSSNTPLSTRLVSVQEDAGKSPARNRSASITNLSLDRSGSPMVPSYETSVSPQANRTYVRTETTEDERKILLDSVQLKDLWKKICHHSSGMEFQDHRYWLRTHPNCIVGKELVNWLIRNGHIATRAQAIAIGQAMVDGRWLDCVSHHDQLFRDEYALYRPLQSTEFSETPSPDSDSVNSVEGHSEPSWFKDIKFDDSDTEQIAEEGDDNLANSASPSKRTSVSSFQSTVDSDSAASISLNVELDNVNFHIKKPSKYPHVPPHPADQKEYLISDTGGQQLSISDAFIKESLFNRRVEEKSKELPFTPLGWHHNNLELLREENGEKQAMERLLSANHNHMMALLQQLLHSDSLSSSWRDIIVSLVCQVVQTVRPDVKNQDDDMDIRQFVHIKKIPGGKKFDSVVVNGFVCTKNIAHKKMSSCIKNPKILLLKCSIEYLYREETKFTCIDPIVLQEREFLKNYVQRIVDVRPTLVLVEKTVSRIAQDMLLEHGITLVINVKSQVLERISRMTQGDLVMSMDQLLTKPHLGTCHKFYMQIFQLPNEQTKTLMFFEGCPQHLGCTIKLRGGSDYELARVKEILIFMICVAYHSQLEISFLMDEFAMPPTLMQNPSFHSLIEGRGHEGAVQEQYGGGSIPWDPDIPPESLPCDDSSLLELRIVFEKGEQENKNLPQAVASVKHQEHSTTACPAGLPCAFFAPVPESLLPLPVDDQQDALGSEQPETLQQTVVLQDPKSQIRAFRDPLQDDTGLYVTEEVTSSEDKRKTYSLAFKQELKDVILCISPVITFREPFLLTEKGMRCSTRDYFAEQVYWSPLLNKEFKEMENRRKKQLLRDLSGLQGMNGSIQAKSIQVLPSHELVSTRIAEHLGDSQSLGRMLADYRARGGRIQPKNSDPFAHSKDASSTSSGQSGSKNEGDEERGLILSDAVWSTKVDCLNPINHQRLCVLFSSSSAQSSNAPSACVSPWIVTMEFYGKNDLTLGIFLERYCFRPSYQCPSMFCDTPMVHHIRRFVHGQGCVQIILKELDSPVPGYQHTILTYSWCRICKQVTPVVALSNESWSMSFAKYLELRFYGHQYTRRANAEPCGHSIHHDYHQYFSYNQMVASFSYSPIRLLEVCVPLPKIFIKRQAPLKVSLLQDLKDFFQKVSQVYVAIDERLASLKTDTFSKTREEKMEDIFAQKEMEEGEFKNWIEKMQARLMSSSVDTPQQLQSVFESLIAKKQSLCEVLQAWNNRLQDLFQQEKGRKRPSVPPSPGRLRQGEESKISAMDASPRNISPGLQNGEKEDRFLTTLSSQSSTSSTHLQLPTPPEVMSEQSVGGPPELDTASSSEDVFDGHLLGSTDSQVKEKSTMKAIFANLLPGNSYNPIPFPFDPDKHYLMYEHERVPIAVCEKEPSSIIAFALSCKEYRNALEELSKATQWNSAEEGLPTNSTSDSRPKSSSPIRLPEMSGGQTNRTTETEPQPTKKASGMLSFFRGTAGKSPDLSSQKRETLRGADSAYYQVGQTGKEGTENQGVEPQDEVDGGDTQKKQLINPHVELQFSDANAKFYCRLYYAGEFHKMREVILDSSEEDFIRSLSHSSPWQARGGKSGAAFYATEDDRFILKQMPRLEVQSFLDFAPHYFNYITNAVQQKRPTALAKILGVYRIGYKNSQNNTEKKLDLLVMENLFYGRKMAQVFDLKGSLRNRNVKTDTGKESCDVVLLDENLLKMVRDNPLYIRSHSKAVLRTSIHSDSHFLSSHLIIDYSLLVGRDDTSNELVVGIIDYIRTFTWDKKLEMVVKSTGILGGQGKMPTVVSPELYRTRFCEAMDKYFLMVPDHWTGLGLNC

SMILES	IC50
CCNC(=O)c1cc2nc(-n3ccc(-c4ccccc4)n3)nc(N3CCOCC3)c2o1 [Compound 152, N-ethyl-4-morpholino-2-(3-phenyl-1H-pyrazol-1-yl)furo[3,2-d]pyrimidine-6-carboxamide]	306 nM
CON(C)C(=O)c1cc2nc(Nc3cc(-c4ccccc4)[nH]n3)nc(N3CCOCC3)c2o1 [Compound 139, N-methoxy-N-methyl-4-morpholino-2-((5-phenyl-1H-pyrazol-3-yl)amino)furo[3,2-d]pyrimidine-6-carboxamide]	22 nM
CN1CCCC(NC(=O)c2cc3nc(-n4cc(-c5ccccc5)cn4)nc(N4CCOCC4)c3o2)C1 (stereo not drawn) [Compound 169, N-(1-methyl-3-piperidyl)-4-morpholino-2-(4-phenylpyrazol-1-yl)furo[3,2-d]pyrimidine-6-carboxamide]	67.3 nM
C=CC(=O)NCCn1nc(-c2cc3nc(-n4cc(-c5cccc(C)c5)cn4)nc(N4CCOCC4)c3o2)cc1C [Compound 196, N-[2-[5-methyl-3-[4-morpholino-2-[4-(m-tolyl)pyrazol-1-yl]furo[3,2-d]pyrimidin-6-yl]pyrazol-1-yl]ethyl]prop-2-enamide]	0.9 nM
c1ccc(-c2cnn(-c3nc(N4CCOCC4)c4oc(-c5ccccn5)cc4n3)c2)cc1 [Compound 161, 4-morpholino-2-(4-phenylpyrazol-1-yl)-6-(2-pyridyl)furo[3,2-d]pyrimidine]	40.4 nM
O=C(NC1CCOCC1)c1cc2nc(-n3ccc(-c4cccc(Br)c4)n3)nc(N3CCOCC3)c2o1 [Compound 220, 2-[3-(3-bromophenyl)pyrazol-1-yl]-4-morpholino-N-tetrahydropyran-4-yl-furo[3,2-d]pyrimidine-6-carboxamide]	16.3 nM
Cc1cccc(-c2ccn(-c3nc(N4CCOCC4)c4oc(-c5cc(C)no5)cc4n3)n2)c1 [Compound 204, 6-(3-methylisoxazol-5-yl)-4-morpholino-2-(3-(m-tolyl)-1H-pyrazol-1-yl)furo[3,2-d]pyrimidine]	2.1 nM
CCNC(=O)c1cc2nc(-n3cc(-c4ccccc4)cn3)nc(N3CCOCC3)c2o1 [Compound 154, N-ethyl-4-morpholino-2-(4-phenylpyrazol-1-yl)furo[3,2-d]pyrimidine-6-carboxamide]	77.3 nM
CNC(=O)c1cc2nc(-n3ccc(-c4cccc(C)c4)n3)nc(N3CCOCC3)c2o1 [Compound 92, N-methyl-4-morpholino-2-(3-(m-tolyl)-1H-pyrazol-1-yl)furo[3,2-d]pyrimidine-6-carboxamide]	91.5 nM
O=C(O)c1cc2nc(Nc3cc(-c4ccccc4)[nH]n3)nc(N3CCOCC3)c2o1 [Compound 141, 4-morpholino-2-((5-phenyl-1H-pyrazol-3-yl)amino)furo[3,2-d]pyrimidine-6-carboxylic acid]	252 nM
O=C(NC1CCOCC1)c1cc2nc(-n3cc(-c4ccccc4)cn3)nc(N3CCOCC3)c2o1 [Compound 171, 4-morpholino-2-(4-phenylpyrazol-1-yl)-N-tetrahydropyran-4-yl-furo[3,2-d]pyrimidine-6-carboxamide]	39.2 nM
O=C(NC1COC1)c1cc2nc(-n3cc(-c4ccccc4)cn3)nc(N3CCOCC3)c2o1 [Compound 174, 4-morpholino-N-(oxetan-3-yl)-2-(4-phenylpyrazol-1-yl)furo[3,2-d]pyrimidine-6-carboxamide]	531 nM
CN(C)CCCCNC(=O)c1cc2nc(-n3cc(-c4ccccc4)cn3)nc(N3CCOCC3)c2o1 [Compound 167]	122 nM
CC(=O)NCCn1nc(-c2cc3nc(-n4cc(-c5cccc(C)c5)cn4)nc(N4CCOCC4)c3o2)cc1C [Compound 197, N-[2-[5-methyl-3-[4-morpholino-2-[4-(m-tolyl)pyrazol-1-yl]furo[3,2-d]pyrimidin-6-yl]pyrazol-1-yl]ethyl]acetamide]	0.7 nM
CCNC(=O)c1cc2nc(-n3cc(-c4cccc(C)c4)cn3)nc(N3CCOCC3=O)c2o1 [Compound 149, N-ethyl-2-[4-(m-tolyl)pyrazol-1-yl]-4-(3-oxomorpholin-4-yl)furo[3,2-d]pyrimidine-6-carboxamide]	> 20000 nM
O=C(NCC1CC1)c1cc2nc(-n3ccc(-c4ccccc4)n3)nc(N3CCOCC3)c2o1 [Compound 166, N-(cyclopropylmethyl)-4-morpholino-2-(3-phenylpyrazol-1-yl)furo[3,2-d]pyrimidine-6-carboxamide]	220 nM
O=C(NC1CC1)c1cc2nc(-n3ccc(-c4ccccc4)n3)nc(N3CCOCC3)c2o1 [Compound 153, N-cyclopropyl-4-morpholino-2-(3-phenylpyrazol-1-yl)furo[3,2-d]pyrimidine-6-carboxamide]	24 nM
O=C(NCC1COC1)c1cc2nc(-n3ccc(-c4ccccc4)n3)nc(N3CCOCC3)c2o1 [Compound 159, 4-morpholino-N-(oxetan-3-ylmethyl)-2-(3-phenylpyrazol-1-yl)furo[3,2-d]pyrimidine-6-carboxamide]	943 nM
COCCNC(=O)c1cc2nc(Nc3cc(-c4ccccc4)[nH]n3)nc(N3CCOCC3)c2o1 [Compound 140, N-(2-methoxyethyl)-4-morpholino-2-((5-phenyl-1H-pyrazol-3-yl)amino)furo[3,2-d]pyrimidine-6-carboxamide]	43 nM
CN(C(=O)c1cc2nc(Nc3cc(-c4ccccc4)[nH]n3)nc(N3CCOCC3)c2o1)C1CC1 [Compound 60, N-cyclopropyl-N-methyl-4-morpholino-2-[(5-phenyl-1H-pyrazol-3-yl)amino]furo[3,2-d]pyrimidine-6-carboxamide, hydrogen chloride]	70.2 nM

Next, values leading:

IC50	SMILES
7 nM	Cc1cc(-c2cc3nc(-n4ccc(-c5ccccc5)n4)nc(N4CCOCC4)c3o2)on1 [Compound 206, 6-(3-methylisoxazol-5-yl)-4-morpholino-2-(3-phenylpyrazol-1-yl)furo[3,2-d]pyrimidine]
116 nM	c1ccc(-c2cc(Nc3nc(N4CCOCC4)c4oc(CN5CCOCC5)cc4n3)[nH]n2)cc1 [Compound 12, 4-morpholino-6-(morpholinomethyl)-N-(3-phenyl-1H-pyrazol-5-yl)furo[3,2-d]pyrimidin-2-amine hydrochloride]
0.4 nM	Cc1cccc(-c2ccn(-c3nc(N4CCOCC4)c4oc(-c5cn[nH]c5)cc4n3)n2)c1 [Compound 219, 4-morpholino-2-[3-(m-tolyl)pyrazol-1-yl]-6-(1H-pyrazol-4-yl)furo[3,2-d]pyrimidine]
2 nM	c1ccc(-c2cc(Nc3nc(N4CCOCC4)c4oc(-c5ccncc5)cc4n3)on2)cc1 [Compound 44, 4-morpholino-N-(3-phenylisoxazol-5-yl)-6-(pyridin-4-yl)furo[3,2-d]pyrimidin-2-amine]
0.6 nM	Cc1cccc(-c2ccn(-c3nc(N4CCOCC4)c4oc(-c5cc(C)n[nH]5)cc4n3)n2)c1 [Compound 173, 6-(3-methyl-1H-pyrazol-5-yl)-4-morpholino-2-[3-(m-tolyl)pyrazol-1-yl]furo[3,2-d]pyrimidine]
24.6 nM	Cn1ccc(-c2cc3nc(-n4ccc(-c5cccc(Cl)c5)n4)nc(N4CCOCC4)c3o2)n1 [Compound 193, 2-[3-(3-chlorophenyl)pyrazol-1-yl]-6-(1-methylpyrazol-3-yl)-4-morpholino-furo[3,2-d]pyrimidine]
21 nM	c1ccc(-n2cc(Nc3nc(N4CCOCC4)c4oc(-c5ccncc5)cc4n3)cn2)cc1 [Compound 49, 4-morpholino-N-(1-phenylpyrazol-4-yl)-6-(4-pyridyl)furo[3,2-d]pyrimidin-2-amine, hydrogen chloride]
30.9 nM	Cc1ccc(-c2cc(Nc3nc(N4CCOCC4)c4oc(-c5ccncc5)cc4n3)[nH]n2)cc1 [Compound 4, 4-morpholino-N-[5-(p-tolyl)-1H-pyrazol-3-yl]-6-(4-pyridyl)furo[3,2-d]pyrimidin-2-amine, hydrogen chloride]
1390 nM	CNC(=O)c1cc2nc(Nc3cc(Cc4ccccc4)n[nH]3)nc(N3CCOCC3)c2o1 [Compound 82]
1.4 nM	c1csc(-c2cc(Nc3nc(N4CCOCC4)c4oc(-c5ccncc5)cc4n3)[nH]n2)c1 [Compound 75, 4-morpholino-6-(pyridin-4-yl)-N-(5-(thiophen-2-yl)-1H-pyrazol-3-yl)furo[3,2-d]pyrimidin-2-amine, hydrogen chloride]
51 nM	O=C(c1cc2nc(Nc3cc(-c4ccccc4)n[nH]3)nc(N3CCOCC3)c2o1)N1CCCCC1 [Compound 55, (4-morpholino-2-((3-phenyl-1H-pyrazol-5-yl)amino)furo[3,2-d]pyrimidin-6-yl)(piperidin-1-yl)methanone hydrochloride]
2.3 nM	Cc1cccc(-c2ccn(-c3nc(N4CCOCC4)c4oc(-c5cnc(C)[nH]5)cc4n3)n2)c1 [Compound 212, 6-(2-methyl-1H-imidazol-5-yl)-4-morpholino-2-(3-(m-tolyl)-1H-pyrazol-1-yl)furo[3,2-d]pyrimidine]
10.1 nM	Clc1cccc(-c2ccn(-c3nc(N4CCOCC4)c4oc(-c5ccccn5)cc4n3)n2)c1 [Compound 185, 2-[3-(3-chlorophenyl)pyrazol-1-yl]-4-morpholino-6-(2-pyridyl)furo[3,2-d]pyrimidine]
205 nM	CN1CCCC(c2cc3nc(Nc4cc(-c5ccccc5)n[nH]4)nc(N4CCOCC4)c3o2)C1 (stereo not drawn) [Compound 35, 6-(1-methylpiperidin-3-yl)-4-morpholino-N-(3-phenyl-1H-pyrazol-5-yl)furo[3,2-d]pyrimidin-2-amine hydrochloride]
95 nM	CN(C)C(=O)c1cc2nc(Nc3cc(-c4ccccc4)[nH]n3)nc(N3CCOCC3)c2o1 [Compound 137, N,N-dimethyl-4-morpholino-2-((5-phenyl-1H-pyrazol-3-yl)amino)furo[3,2-d]pyrimidine-6-carboxamide]
17.8 nM	Cc1cc(-c2cc3nc(-n4ccc(-c5ccccc5)n4)nc(N4CCOCC4)c3o2)[nH]n1 [Compound 162, 6-(3-methyl-1H-pyrazol-5-yl)-4-morpholino-2-(3-phenylpyrazol-1-yl)furo[3,2-d]pyrimidine]
